Experimental data from US6911220B1, “Allogeneic and xenogeneic transplantation” (The General Hospital Corporation, priority 1992, dated 2005).

Tested on: pig kidney transplants in Cynomolgus monkeys
Assay: Pig to monkey kidney xenotransplantation

## N=C(N)NCCCCCCC(=O)NC(O)C(=O)NCCCCNCCCN (stereo not shown) [DSG, 15-deoxyspergualin]
6 mg/kg/day, i.v., pig to cynomolgus kidney transplants
  suppression of natural antibody function: useful in suppressing natural antibody function
Cyclosporine 15 mg/kg/day 28 days + 15-deoxyspergualin 6 mg/kg/day two weeks + pig SCF and IL-3 10 μg/kg/day i.v. two weeks, pig grafts and stem cells
  usefulness of combination treatment: useful
Splenectomy + pig liver perfusion, cyclosporine 15 mg/kg/day iv and DSG 6 mg/kg/day iv post-transplant, removed on day 8
  day until which the pig kidney functioned: 7 days
With cyclosporine 15 mg/kg/day iv and DSG 6 mg/kg/day iv
  IgM natural antibodies in serum after liver perfusion: did not appear in the serum thereafter
